# From ChEMBL document CHEMBL4706559, “New indolylarylsulfone non-nucleoside reverse transcriptase inhibitors show low nanomolar inhibition of single and double HIV-1 mutant strains” (Eur J Med Chem, 2020)
# Tests used:
# [1] = tested on: Human immunodeficiency virus 1; experiment: Antiviral activity against HIV1 harboring RT Y188L mutant infected in human MT4 cells assessed as protection against virus-induced cytopathic effect by MTT assay; type: functional, organism-based; settings: Human immunodeficiency virus 1, MT4
# [2] = tested on: Human immunodeficiency virus 1; experiment: Resistance index, ratio of EC50 for antiviral activity against HIV1 harboring RT Y188L mutant infected in human MT4 cells to EC50 for antiviral activity against HIV1 NL4-3 infected in human MT4 cells; type: functional
# [3] = tested on: Human immunodeficiency virus 1; experiment: Antiviral activity against HIV1 harboring RT K103N mutant infected in human MT4 cells assessed as protection against virus-induced cytopathic effect by MTT assay; type: functional, organism-based; settings: Human immunodeficiency virus 1, MT4
# [4] = tested on: Human immunodeficiency virus 1; experiment: Antiviral activity against HIV1 harboring RT Y181C mutant infected in human MT4 cells assessed as protection against virus-induced cytopathic effect by MTT assay; type: functional, organism-based; settings: Human immunodeficiency virus 1, MT4
# [5] = biological target: Human immunodeficiency virus type 1 reverse transcriptase (Human immunodeficiency virus 1) (UniProt Q72547); experiment: Inhibition of wild type HIV1 p66/p51 reverse transcriptase assessed as apparent Vmax at 90 nM using fixed concentration of poly(rA)/oligo(dT) as templates in presence of 2 to 100 uM of [3H]dTTP by Michaelis-Menten analysis (reference value: 9.7 +/- 12%)
# [6] = biological target: Human immunodeficiency virus type 1 reverse transcriptase (Human immunodeficiency virus 1) (UniProt Q72547); experiment: Ratio of Kon of wild type HIV-1 p66/p51 reverse transcriptase/nucleic acid binary complex to Kon of free form of wild type HIV-1 p66/p51 reverse transcriptase using poly(rA)/oligo(dT) as templates in presence of [3H]dTTP
# [7] = biological target: Human immunodeficiency virus type 1 reverse transcriptase (Human immunodeficiency virus 1, UniProt Q72547); experiment: Binding affinity to wild type HIV-1 p66/p51 reverse transcriptase/nucleic acid/dTTP ternary complex using poly(rA)/oligo(dT) as templates in presence of [3H]dTTP
# [8] = tested on: Human immunodeficiency virus 1; experiment: Antiviral activity against HIV-1 NL4-3 infected in human MT-4 cells assessed as virus induced cytopathic effect by MTT assay; type: functional, organism-based; settings: Human immunodeficiency virus 1, NL4-3, MT4
# [9] = tested on: Human immunodeficiency virus 1; experiment: Antiviral activity against wild type HIV-1 P1 infected in human C8166 cells assessed as reduction in viral RNA production at 25 nM; type: functional; settings: Human immunodeficiency virus 1, P1, C8166
# [10] = tested on: Human immunodeficiency virus 1; experiment: Ratio of Kon of HIV-1 p66/p51 reverse transcriptase K103N/Y181C double mutant/nucleic acid/dTTP ternary complex to Kon of HIV-1 p66/p51 reverse transcriptase/nucleic acid binary complex using poly(rA)/oligo(dT) as templates in presence of [3H]dTTP
# [11] = tested on: Human immunodeficiency virus 1; experiment: Binding affinity to HIV-1 p66/p51 reverse transcriptase K103N/Y181C double mutant/nucleic acid binary complex assessed as association constant using poly(rA)/oligo(dT) as templates in presence of [3H]dTTP
# [12] = biological target: Human immunodeficiency virus type 1 reverse transcriptase (Human immunodeficiency virus 1) (UniProt Q72547); experiment: Binding affinity to free form of wild type HIV-1 p66/p51 reverse transcriptase assessed as association constant using poly(rA)/oligo(dT) as templates in presence of [3H]dTTP
# [13] = tested on: Human immunodeficiency virus 1; experiment: Antiviral activity against wild type HIV-1 P1 infected in human C8166 cells assessed as reduction in viral p24 antigen production at 25 nM; type: functional; settings: Human immunodeficiency virus 1, P1, C8166
# [14] = biological target: Human immunodeficiency virus type 1 reverse transcriptase (Human immunodeficiency virus 1) (UniProt Q72547); experiment: Inhibition of wild type HIV1 p66/p51 reverse transcriptase assessed as apparent Vmax at 150 nM using 10 to 500 uM poly(rA)/oligo(dT) as templates in presence of fixed concentration of [3H]dTTP by Michaelis-Menten analysis (reference value: 10 +/- 0.5%)
# [15] = tested on: Human immunodeficiency virus 1; experiment: Binding affinity to free form of HIV-1 p66/p51 reverse transcriptase K103N/Y181C double mutant assessed as dissociation constant using poly(rA)/oligo(dT) as templates in presence of [3H]dTTP
smiles,measurement,setting,value
Cc1cc(C)cc(S(=O)(=O)c2c(C(=O)NCc3ccccc3O)[nH]c3ccc(Cl)cc23)c1,EC50,[1],21.3 nM
same,Ratio EC50,[2],>30
same,EC50,[3],< 0.7 nM
same,EC50,[4],< 0.7 nM
same,Vmax(app),[5],2.9%
same,Ratio,[6],7
same,Ki,[7],28 nM
same,EC50,[8],< 0.7 nM
same,inhibition at 0.025 µM,[9],100%
same,Ratio,[10],4
same,K,[11],10 10^-5/nM/s
same,K,[12],13 10^-5/nM/s
same,inhibition at 0.025 µM,[13],100%
same,Vmax(app),[14],1.2%
same,K,[15],14 10^-3/s
